The values below come from patent US10385057B2, “Pyrazole compounds and methods of making and using same” (Lundbeck La Jolla Research Center, Inc., priority 2015, dated 2019).

In one experiment the target is T1, MAGL (Mus musculus, UniProt O35678).
T1 construct: mouse brain membrane fraction or cell lysates for mouse assays; from tissue
T1 sequence (O35678 1-303): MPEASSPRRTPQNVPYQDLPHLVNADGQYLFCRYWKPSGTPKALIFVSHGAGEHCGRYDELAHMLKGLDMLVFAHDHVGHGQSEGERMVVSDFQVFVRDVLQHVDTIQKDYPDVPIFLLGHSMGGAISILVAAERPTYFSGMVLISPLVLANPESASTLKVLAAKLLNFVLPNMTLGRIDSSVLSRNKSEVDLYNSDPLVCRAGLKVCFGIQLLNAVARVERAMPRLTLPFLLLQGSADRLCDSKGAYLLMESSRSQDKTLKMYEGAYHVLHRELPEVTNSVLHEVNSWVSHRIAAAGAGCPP
Briefly: In vitro competitive activity-based protein profiling, mouse MAGL. Conditions: for inhibition at 1 µM: read-out: MAGL % inh. 1 μM (mouse). It counts as biochemical. The method, boiled down: (§1)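 Mouse brain membranes or cell lysates (mouse) and human prefrontal cortex or cell membrane fractions (human), 1.0 mg/mL protein, preincubated with inhibitor 30 min at 37 °C, then FP-Rh or HT-01 probe 30 min at 37 °C. SDS-PAGE; MAGL and FAAH activity from in-gel fluorescence band intensity.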

The next experiment deals with T2, FAAH (Mus musculus, UniProt O08914).
T2 construct: mouse brain membrane fraction or cell lysates for mouse assays; from tissue
T2 sequence (O08914 1-579): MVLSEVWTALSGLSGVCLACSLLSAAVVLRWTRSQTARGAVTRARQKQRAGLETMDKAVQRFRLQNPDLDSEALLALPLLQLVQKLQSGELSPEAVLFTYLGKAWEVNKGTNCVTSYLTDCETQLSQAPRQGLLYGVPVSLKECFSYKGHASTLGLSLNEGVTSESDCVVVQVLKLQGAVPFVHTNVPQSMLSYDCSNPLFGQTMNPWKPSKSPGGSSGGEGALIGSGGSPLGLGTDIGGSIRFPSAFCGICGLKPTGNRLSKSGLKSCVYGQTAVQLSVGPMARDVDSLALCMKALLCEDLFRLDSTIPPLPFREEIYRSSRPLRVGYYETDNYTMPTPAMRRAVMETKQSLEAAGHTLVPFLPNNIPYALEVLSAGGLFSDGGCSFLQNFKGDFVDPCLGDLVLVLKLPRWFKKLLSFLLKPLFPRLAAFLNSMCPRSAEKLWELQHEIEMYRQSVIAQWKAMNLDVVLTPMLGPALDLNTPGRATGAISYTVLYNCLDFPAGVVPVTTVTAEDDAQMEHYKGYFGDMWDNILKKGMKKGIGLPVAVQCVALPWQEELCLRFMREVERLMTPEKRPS
Briefly: In vitro competitive activity-based protein profiling, mouse FAAH. Type of experiment: biochemical. The note with it: for inhibition at 1 µM: read-out: FAAH % inh. 1 μM (mouse). The method, boiled down: as §1

Where only a bound is given, the exact number is not on record here.

As a reminder, the IC50 is the concentration needed to halve the response being measured. High values mean weaker potency, low ones greater potency.

On to `Cc1cccc(CN2CC3CN(C(=O)n4cc(C(F)(F)F)cn4)CC3C2)c1` (stereo not shown) [Example 141, (5-(3-methylbenzyl)hexahydropyrrolo[3,4-c]pyrrol-2(1H)-yl)(4-(trifluoromethyl)-1H-pyrazol-1-yl)methanone], for which the IC50 at MAGL and at FAAH was ≤ 100 nM each time. In addition, the inhibition at 1 µM on MAGL and at FAAH was ≥ 75% throughout.
Regarding `CN(Cc1cc(C(F)(F)F)ccc1Cl)[C@@H]1C[C@@H]2CN(C(=O)n3cc(C(N)=O)cn3)C[C@@H]2C1` [Example 218, 1-(cis-5-((2-chloro-5-(trifluoromethyl)benzyl)(methyl)amino)octahydrocyclopenta[c]pyrrole-2-carbonyl)-1H-pyrazole-4-carboxamide], the inhibition at 1 µM on MAGL and at FAAH was ≥ 75% in each case.
`CN(Cc1ccccc1Cl)[C@@H]1C[C@@H]2CN(C(=O)n3cc(C(=O)N4CCOCC4)cn3)C[C@@H]2C1` [Example 85, (cis-5-((2-chlorobenzyl)(methyl)amino)hexahydrocyclopenta[c]pyrrol-2(1H)-yl)(4-(morpholine-4-carbonyl)-1H-pyrazol-1-yl)methanone]: the inhibition at 1 µM was 50 to 75% on MAGL and ≥ 75% on FAAH.
As to `O=C(N1CC2CN(Cc3ccc(F)cc3)CC2C1)n1cc(C(F)(F)F)cn1` (stereo not shown) [Example 146, (5-(4-fluorobenzyl)hexahydropyrrolo[3,4-c]pyrrol-2(1H)-yl)(4-(trifluoromethyl)-1H-pyrazol-1-yl)methanone], on MAGL, the IC50 was ≤ 100 nM and the inhibition at 1 µM was ≥ 75%. For the same compound, at FAAH, the IC50 was ≤ 100 nM and the inhibition at 1 µM was ≥ 75%.
As to `O=C(N1CC2CN(Cc3cccc(N4CCCC4)c3)CC2C1)n1cc(C(F)(F)F)cn1` (stereo not shown) [Example 144, (5-(3-(pyrrolidin-1-yl)benzyl)hexahydropyrrolo[3,4-c]pyrrol-2(1H)-yl)(4-(trifluoromethyl)-1H-pyrazol-1-yl)methanone], the 50% inhibitory concentration (IC50) on MAGL and at FAAH was ≤ 100 nM throughout. For the same compound, the inhibition at 1 µM at MAGL and on FAAH was ≥ 75% each time.
For the compound `CN(Cc1ccc(Cl)cc1)[C@H]1C[C@@H]2CN(C(=O)n3cc(Cl)cn3)C[C@@H]2C1` [Example 68, (4-chloro-1H-pyrazol-1-yl)(trans-5-((4-chlorobenzyl)(methyl)amino)hexahydrocyclopenta[c]pyrrol-2(1H)-yl)methanone], the inhibition at 1 µM on MAGL and at FAAH was ≥ 75% in each case.
On to `CN(Cc1ccc(-c2nccs2)cc1C(F)(F)F)[C@H]1C[C@@H]2CN(C(=O)n3cc(C(N)=O)cn3)C[C@@H]2C1` [Example 224, 1-(trans-5-(methyl(4-(thiazol-2-yl)-2-(trifluoromethyl)benzyl)amino)octahydrocyclopenta[c]pyrrole-2-carbonyl)-1H-pyrazole-4-carboxamide], for which the inhibition at 1 µM on MAGL and on FAAH was ≥ 75% throughout.
For the compound `O=C(N1CC2CN(Cc3ccc(F)cc3N3CCOCC3)CC2C1)n1cc(Cl)cn1` (stereo not shown) [Example 100, (4-chloro-1H-pyrazol-1-yl)(5-(4-fluoro-2-morpholinobenzyl)hexahydropyrrolo[3,4-c]pyrrol-2(1H)-yl)methanone], on MAGL, the IC50 was ≤ 100 nM and the inhibition at 1 µM was ≥ 75%. Further, on FAAH, the IC50 fell in the range of 100 to 1000 nM and the inhibition at 1 µM was ≥ 75%.
Regarding `NC(=O)c1cnn(C(=O)N2CCC3(CCN(Cc4ccc(N5CCCC5)c(C(F)(F)F)c4)C3)C2)c1` (stereo not shown) [Example 207, 1-(7-(4-(pyrrolidin-1-yl)-3-(trifluoromethyl)benzyl)-2,7-diazaspiro[4.4]nonane-2-carbonyl)-1H-pyrazole-4-carboxamide], the inhibition at 1 µM on MAGL and at FAAH was ≥ 75% throughout.
As to `O=C(c1cnn(C(=O)N2CC3CN(Cc4ccc(N5CCOCC5)cc4C(F)(F)F)CC3C2)c1)N1CCCC1` (stereo not shown) [Example 12, (5-(4-morpholino-2-(trifluoromethyl)benzyl)hexahydropyrrolo[3,4-c]pyrrol-2(1H)-yl)(4-(pyrrolidine-1-carbonyl)-1H-pyrazol-1-yl)methanone], the inhibition at 1 µM on MAGL and on FAAH was ≥ 75% throughout.
Take `CN(Cc1ccc(N2CCOCC2)cc1)[C@@H]1C[C@@H]2CN(C(=O)n3cc(Cl)cn3)C[C@@H]2C1` [Example 77, (4-chloro-1H-pyrazol-1-yl)(cis-5-(methyl(4-morpholinobenzyl)amino)hexahydrocyclopenta[c]pyrrol-2(1H)-yl)methanone]: on MAGL, the IC50 was in the range of 1000 to 10000 nM and the inhibition at 1 µM lay in the range of 50 to 75%. Moreover, on FAAH, the IC50 was in the range of 100 to 1000 nM and the inhibition at 1 µM is ≥ 75%.
In the case of `O=C(O)c1cnn(C(=O)N2CC3CN(Cc4cccc(Oc5ccccc5)c4)CC3C2)c1` (stereo not shown) [Example 187, 1-(5-(3-phenoxybenzyl)octahydropyrrolo[3,4-c]pyrrole-2-carbonyl)-1H-pyrazole-4-carboxylic acid], the inhibition at 1 µM at MAGL was 50 to 75%; on FAAH, ≥ 75%.
As to `CN(Cc1cccc(Oc2cccnc2)c1)[C@H]1C[C@@H]2CN(C(=O)n3cc(Cl)cn3)C[C@@H]2C1` [Example 163, (4-chloro-1H-pyrazol-1-yl)(trans-5-(methyl(3-(pyridin-3-yloxy)benzyl)amino)hexahydrocyclopenta[c]pyrrol-2(1H)-yl)methanone], on MAGL, the IC50 is ≤ 100 nM and the inhibition at 1 µM is ≥ 75%. Besides, on FAAH, the concentration for half-maximal inhibition (IC50) was ≤ 100 nM and the inhibition at 1 µM is ≥ 75%.
Turning to `O=C(c1cnn(C(=O)N2CCC3(CCN(Cc4cc(Cl)ccc4Cl)C3)C2)c1)N1CCOCC1` (stereo not shown) [Example 29, (1-(7-(2,5-dichlorobenzyl)-2,7-diazaspiro[4.4]nonane-2-carbonyl)-1H-pyrazol-4-yl)(morpholino)methanone], the inhibition at 1 µM is 0 to 25% at MAGL and ≥ 75% on FAAH. In addition, the inhibition at 10 µM stood at 100% on MAGL (10 μM, read-out: MAGL % inh. at 10 μM (mouse)) and 100% on FAAH (10 μM, read-out: FAAH % inh. at 10 μM (mouse)).
For the compound `NC(=O)c1cnn(C(=O)N2CCC3(CCN(Cc4cc(N5CCCC5)ccc4C(F)(F)F)C3)C2)c1` (stereo not shown) [Example 213, 1-(7-(5-(pyrrolidin-1-yl)-2-(trifluoromethyl)benzyl)-2,7-diazaspiro[4.4]nonane-2-carbonyl)-1H-pyrazole-4-carboxamide], the inhibition at 1 µM on MAGL is ≥ 75%; on FAAH, 50 to 75%.
Regarding `CN(Cc1ccc(Cl)cc1)[C@@H]1C[C@@H]2CN(C(=O)n3cc(Cl)cn3)C[C@@H]2C1` [Example 67, (4-chloro-1H-pyrazol-1-yl)(cis-5-((4-chlorobenzyl)(methyl)amino)hexahydrocyclopenta[c]pyrrol-2(1H)-yl)methanone], on MAGL, the IC50 lay in the range of 100 to 1000 nM and the inhibition at 1 µM was ≥ 75%. Also, on FAAH, the IC50 was ≤ 100 nM and the inhibition at 1 µM is ≥ 75%.
For `O=C(N1CC2CN(Cc3ccccc3N3CCCC3)CC2C1)n1cc(C(F)(F)F)cn1` (stereo not shown) [Example 156, (5-(2-(pyrrolidin-1-yl)benzyl)hexahydropyrrolo[3,4-c]pyrrol-2(1H)-yl)(4-(trifluoromethyl)-1H-pyrazol-1-yl)methanone], the IC50 on MAGL is ≤ 100 nM; on FAAH, 100 to 1000 nM. The inhibition at 1 µM at MAGL and at FAAH was ≥ 75% each time.
Take `O=C(c1cnn(C(=O)N2CC3CN(Cc4ccccc4Cl)CC3C2)c1)N1CCCCC1` (stereo not shown) [Example 1, (5-(2-chlorobenzyl)hexahydropyrrolo[3,4-c]pyrrol-2(1H)-yl)(4-(piperidine-1-carbonyl)-1H-pyrazol-1-yl)methanone]: at MAGL, the IC50 lay in the range of 1000 to 10000 nM and the inhibition at 1 µM was in the range of 25 to 50%. Also, on FAAH, the IC50 is ≤ 100 nM and the inhibition at 1 µM was ≥ 75%.
Taken in the same sequence, the figures for `O=C(c1cnn(C(=O)N2CC3CN(Cc4cccc(Cl)c4)CC3C2)c1)N1CCCCC1` (stereo not shown) [Example 3, (5-(3-chlorobenzyl)hexahydropyrrolo[3,4-c]pyrrol-2(1H)-yl)(4-(piperidine-1-carbonyl)-1H-pyrazol-1-yl)methanone] were 1000 to 10000 nM, 50 to 75%, 100 to 1000 nM and ≥ 75%.
The like results for `O=C(N1CC2CN(Cc3cccc(Oc4ccccc4)c3)CC2C1)n1cc(Cl)cn1` (stereo not shown) [Example 124, (4-chloro-1H-pyrazol-1-yl)(5-(3-phenoxybenzyl)hexahydropyrrolo[3,4-c]pyrrol-2(1H)-yl)methanone] were, in that order, ≤ 100 nM, ≥ 75%, ≤ 100 nM and ≥ 75%.
